In US20110112132A1, “MEANS FOR THE TREATMENT OF ACUTE AND CHRONIC DISORDERS OF CEREBRAL CIRCULATION, INCLUDING INSULT, BASED ON HYDROGENATED PYRIDO (4,3-B) INDOLES (VARIANTS), PHARMACOLOGICAL MEANS BASED THEREON AND METHOD FOR THE USE THEREOF” (Medivation Neurology, Inc., priority 2006, published 2011):
Where a name gives a salt, the structure may show the parent alone. Marks after values point to notes of the source that are not given here.

What was measured:
[1] = test system: rats with hemorrhagic insult; assay: Intracerebral post-traumatic hematoma (hemorrhagic insult) model: neurological deficit, McGraw Stroke index; assay type: in vivo, rat
Protocol: (§1) The study was performed in accordance with the “Methodological instructions for the experimental study of preparations for the treatment of cerebral circulation and migraine,” in “Handbook on the experimental (preclinical) study of new pharmacological substances,” Meditsina, Moscow, 2005, pp. 332-338, as modified by A. N. Makarenko et al. (“Method for modeling local hemorrhage in various brain structures in experimental animals,” Zh. vyssh. nervn. deyat. (2002) 52(6):765-768).
The experiments were performed on cross-bred male white rats weighing 200-250 g, kept in a vivarium with free access to food (standard pelleted feed) and water, and with natural alternation of day and night. Using a special device (mandrin-knife) and stereotaxis, brain tissue of rats anesthetized with nembutal (40 mg/kg, i/m) was destroyed in the region of the capsule interna, with subsequent (after 2-3 minutes) introduction into the damage site of blood taken from under the rat's tongue (0.02-0.03 ml). Scalping and trepanning of the skull were performed on sham-operated animals.
(§2) The animals were divided into 4 groups: sham-operated, a group of animals with hemorrhagic insult, animals with hemorrhagic insult which received dimebon intraperitoneally at a dose of 0.1 mg/kg, and animals with hemorrhagic insult which received nimodipine intraperitoneally at a dose of 0.1 mg/kg. The effects of the substances were recorded 24 hours, and 3, 7 and 14 days after operation.
Dimebon and nimodipine were administered intraperitoneally to animals with insult in an identical dose of 0.1 mg/kg 3-3.5 hours after operation, and then daily for 14 days after operation. An equal volume of physiological saline was administered intraperitoneally to the control groups of animals at identical intervals. Each group consisted of 9-18 animals at the start of the experiment.
The neurological deficit in the animals was determined using the McGraw Stroke index as modified by I. V. Gannushkina (Functional angioarchitectonics of the brain (1977) (Moscow, Meditsina) p. 224). The severity of the condition was determined from the sum of the corresponding scores. The number of rats with mild symptoms up to 2.5 points on the Stroke-index scale (sluggish movements, limb weakness, unilateral hemiptosis, tremor, circular movements) and with severe manifestations of neurological impairment (from 3 to 10 points)—limb paresis, paralysis of lower limbs, lateral position, was noted.

[2] = test system: rats with hemorrhagic insult; assay: Intracerebral post-traumatic hematoma (hemorrhagic insult) model: death of animals; assay type: in vivo, rat; details: 0.1 mg/kg i.p.; entire period of observation
Protocol: as §1
The experiments were performed on cross-bred male white rats weighing 200-250 g, kept in a vivarium with free access to food (standard pelleted feed) and water, and with natural alternation of day and night. […]
as §2, with “operation. […]” for “operation.”
Rat deaths were recorded over the entire 14 day period of observation. […]

AMPA receptors = details: rat brain neurons; cited from earlier work
NMDA receptors = details: rat brain neurons; cited from earlier work
[3] = test system: rats with cerebral ischemia induced by ligation of the carotid arteries; assay: Rat brain ischemia by ligation of the carotid arteries: neurological deficit, McGraw Stroke index; assay type: in vivo; details: 0.1 mg/kg i.p.
Protocol: Rat brain ischemia, produced by irreversible occlusion of the carotid arteries, was performed in accordance with “Methodological instructions for the experimental study of preparations for the treatment of cerebral circulation and migraine,” in “Handbook on the experimental (preclinical) study of new pharmacological substances,” Meditsina, Moscow, 2005, pp. 332-338.
Experiments were performed on cross-bred male white rats weighing 200-250 g, anesthetized with chloral hydrate (350 mg/kg, i/p). Irreversible single-step bilateral ligation of the common carotid arteries was performed on the animals. In the group of sham-operated animals, the ligatures were applied to the vessels but were not tightened.
After completing the operation, the animals were divided randomly into groups: group one rats were given dimebon intraperitoneally at 0.1 mg/kg administered 30 minutes after the ligature was tied, then daily for 14 days after operation; group two rats were given nimodipine intraperitoneally at 0.1 mg/kg administered 30 minutes after the ligature was tied, then daily for 14 days after operation. Group one and group two animals were experiencing an acute cerebral circulation disturbance at the time of drug administration. Control group and sham-operated animals were given equivalent volumes of physiological saline (0.9% sodium chloride) at the same times.
Neurological deficit in animals with cerebral ischemia induced by ligation of the carotid arteries was determined using the McGraw Stroke index as modified by I. V. Gannushkina (Functional angioarchitectonics of the brain (1977) (Moscow, Meditsina) p. 224). The severity of the condition was determined from the sum of the corresponding scores. The number of rats with mild symptoms up to 2.5 points on the Stroke-index scale (sluggish movements, limb weakness, hemiptosis, tremor, circular movements) and with severe manifestations of neurological impairment (from 3 to 10 points)—limb paresis, paralysis of lower limbs, lateral position, was noted.

[4] = 24 hours after operation (hemorrhagic insult), 0.1 mg/kg i.p.
[5] = 14 days after operation (hemorrhagic insult), 0.1 mg/kg i.p. daily

SMILES	Number of animals with circular movements [1, 4]	Number of animals with limb weakness [1, 4]	Number of animals with paresis of 1-4 limbs [1, 4]	Number of animals with sluggish, slow movements [1, 4]	Number of animals with circular movements [1, 5]	Number of animals with limb weakness [1, 5]	Number of animals with paresis of 1-4 limbs [1, 5]	Number of animals with sluggish, slow movements [1, 5]	Number of animals with bilateral hemiptosis ([3]; 1 day after ischemic insult)	Number of animals with limb weakness ([3]; 1 day after ischemic insult)	Number of animals with sluggish, slow movements ([3]; 1 day after ischemic insult)	Number of animals with unilateral hemiptosis ([3]; 1 day after ischemic insult)	Number of animals with bilateral hemiptosis ([3]; 3 days after ischemic insult)	Number of animals with limb weakness ([3]; 3 days after ischemic insult)	Number of animals with sluggish, slow movements ([3]; 3 days after ischemic insult)	Number of animals with unilateral hemiptosis ([3]; 3 days after ischemic insult)	Number of animals with bilateral hemiptosis ([3]; 7 days after ischemic insult)	Number of animals with limb weakness ([3]; 7 days after ischemic insult)	Number of animals with sluggish, slow movements ([3]; 7 days after ischemic insult)	Number of animals with unilateral hemiptosis ([3]; 7 days after ischemic insult)	other results
Cc1ccc2c(c1)c1c(n2CCc2ccc(C)nc2)CCN(C)C1 [dimebon, 2,8-dimethyl-5-[2-(6-methyl-pyridyl-3-)ethyl]2,3,4,5-tetrahydro-1H-pyrido[4,3-b]indole dihydrochloride]	33%	66%	33%	88%	0%	7%	0%	7%	33.3* %	16.7%	33.3* %	16.7%	25.0* %	16.7%	33.3%	0%	9.1* %	9.1%	9.1* %	0%	Effect on number of animals with pareses after hemorrhagic insult, in words ([1]; 0.1 mg/kg i.p., first day of observation): almost halving the number of animals with pareses; Effect on death of animals after hemorrhagic insult, in words [2]: almost completely prevented the death of animals; Effect on transmembrane currents induced by the activation of AMPA receptors, in words (AMPA receptors): potentiates the transmembrane currents; Effect on NMDA receptors, in words (NMDA receptors): blocks the NMDA receptors; Effect on neurological deficit in rats with ischemia, in words ([3]; first and particularly seventh day after operation): prevented the development of neurological deficit; Number of animals with bilateral hemiptosis ([3]; 14 days after ischemic insult): 0%; Number of animals with limb weakness ([3]; 14 days after ischemic insult): 0%; Number of animals with sluggish, slow movements ([3]; 14 days after ischemic insult): 0%; Number of animals with unilateral hemiptosis ([3]; 14 days after ischemic insult): 0%; Number of animals with unilateral ptosis ([3]; 14 days after ischemic insult): 0%
COCCOC(=O)C1=C(C)NC(C)=C(C(=O)OC(C)C)C1c1cccc([N+](=O)[O-])c1 (stereo not shown) [nimodipine, reference compound]	25%	50%	25* %	50%	0%	0%	0* %	16.6%	50%	20%	50%	20%	20* %	0%	30%	20%	20* %	10%	0%	0%	Number of animals with bilateral hemiptosis ([3]; 14 days after ischemic insult): 0%; Number of animals with limb weakness ([3]; 14 days after ischemic insult): 0%; Number of animals with sluggish, slow movements ([3]; 14 days after ischemic insult): 0%; Number of animals with unilateral hemiptosis ([3]; 14 days after ischemic insult): 0%; Number of animals with unilateral ptosis ([3]; 14 days after ischemic insult): 0%
